Results from ChEMBL document CHEMBL1201862, “PubChem BioAssay data set” (2004).
Active and inactive are the calls of the source.

Assays:
[1] = target: Beta-galactosidase (Escherichia coli, UniProt Q8VNN2); assay: detection-enzyme interference by beta-gal modulators – biochemical, E. coli enzyme, set 3, artefact control for CCR6 antagonist project, dose response (AID 504712); assay type: functional
[2] = target: C-C chemokine receptor type 6 (Homo sapiens, UniProt P51684); assay: antagonism of CCR6 beta-arrestin recruitment – cell-based, luminescent beta-arrestin readout, dose response (AID 504728); assay type: functional
[3] = target: T1, Replicative DNA helicase DnaB (Mycobacterium tuberculosis, UniProt P9WMR3); assay: DnaB intein splicing inhibitors, dose response, biochemical, cell-free fluorescence (AID 449749); assay type: functional
T1 sequence (P9WMR3 whole entry): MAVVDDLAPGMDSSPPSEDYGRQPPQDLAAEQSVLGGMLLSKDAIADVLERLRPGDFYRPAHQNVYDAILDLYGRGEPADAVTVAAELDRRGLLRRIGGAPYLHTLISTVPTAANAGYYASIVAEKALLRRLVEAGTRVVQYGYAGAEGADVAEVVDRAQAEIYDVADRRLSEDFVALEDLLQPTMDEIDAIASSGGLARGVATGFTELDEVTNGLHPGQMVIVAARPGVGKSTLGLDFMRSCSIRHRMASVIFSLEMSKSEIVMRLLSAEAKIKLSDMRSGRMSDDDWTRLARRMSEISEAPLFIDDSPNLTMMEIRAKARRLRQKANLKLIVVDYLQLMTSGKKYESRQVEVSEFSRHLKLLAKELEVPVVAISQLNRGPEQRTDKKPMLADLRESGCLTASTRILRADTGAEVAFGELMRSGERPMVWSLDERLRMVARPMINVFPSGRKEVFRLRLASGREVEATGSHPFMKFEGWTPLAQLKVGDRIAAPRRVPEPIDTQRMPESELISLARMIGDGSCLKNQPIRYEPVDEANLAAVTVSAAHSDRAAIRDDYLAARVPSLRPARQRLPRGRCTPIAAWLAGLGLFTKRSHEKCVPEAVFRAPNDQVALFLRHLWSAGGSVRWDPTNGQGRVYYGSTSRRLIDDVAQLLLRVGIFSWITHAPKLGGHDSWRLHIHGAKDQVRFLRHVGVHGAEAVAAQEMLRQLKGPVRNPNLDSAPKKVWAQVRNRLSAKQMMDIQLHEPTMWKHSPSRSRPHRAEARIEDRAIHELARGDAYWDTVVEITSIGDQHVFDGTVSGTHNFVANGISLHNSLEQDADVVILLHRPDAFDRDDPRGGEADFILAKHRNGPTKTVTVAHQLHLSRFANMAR

[4] = target: Genome polyprotein (dengue virus type 2, UniProt P29990); assay: flavivirus cap methylation enzyme inhibition – biochemical, confirmation dose response, primary screen (AID 588689); assay type: functional
Chain of Genome polyprotein (P29990 2492-3391 limits assumed): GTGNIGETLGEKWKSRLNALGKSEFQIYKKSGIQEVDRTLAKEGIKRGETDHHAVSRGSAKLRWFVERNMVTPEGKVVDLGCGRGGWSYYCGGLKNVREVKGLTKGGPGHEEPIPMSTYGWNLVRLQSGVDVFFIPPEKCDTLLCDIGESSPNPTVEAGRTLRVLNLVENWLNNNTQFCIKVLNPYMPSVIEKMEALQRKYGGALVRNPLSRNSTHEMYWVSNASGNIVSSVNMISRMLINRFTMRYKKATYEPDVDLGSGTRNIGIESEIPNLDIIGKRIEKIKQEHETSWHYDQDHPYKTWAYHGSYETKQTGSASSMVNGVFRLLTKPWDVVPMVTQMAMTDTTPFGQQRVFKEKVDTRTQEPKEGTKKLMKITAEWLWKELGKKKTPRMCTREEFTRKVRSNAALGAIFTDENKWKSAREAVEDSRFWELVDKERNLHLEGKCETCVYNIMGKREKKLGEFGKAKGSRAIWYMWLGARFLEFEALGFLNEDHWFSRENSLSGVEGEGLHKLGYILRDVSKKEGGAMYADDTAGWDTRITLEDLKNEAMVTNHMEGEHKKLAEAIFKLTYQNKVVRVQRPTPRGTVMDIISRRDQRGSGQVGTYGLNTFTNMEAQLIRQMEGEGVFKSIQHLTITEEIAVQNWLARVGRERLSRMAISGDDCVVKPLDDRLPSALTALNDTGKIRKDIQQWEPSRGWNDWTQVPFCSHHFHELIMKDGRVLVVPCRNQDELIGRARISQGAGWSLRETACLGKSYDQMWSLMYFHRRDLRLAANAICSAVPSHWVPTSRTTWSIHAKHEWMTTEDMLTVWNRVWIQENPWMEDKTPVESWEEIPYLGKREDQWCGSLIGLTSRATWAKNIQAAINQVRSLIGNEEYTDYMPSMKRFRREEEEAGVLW

[5] = protection from phage-mediated lysis, alamar blue read-out – E. coli UTI89, K1F phage, bacterial capsule biogenesis inhibitors (AID 488966); assay type: functional
[6] = target: T2, Protein RecA (Mycobacterium tuberculosis, UniProt P9WHJ3); assay: Fluorescence Cell-Free Homogeneous Dose Retest to Identify Inhibitors of RecA-Intein Splicing Activity. [Related pubchem assays (depositor defined):AID2097, AID2223, AID489010, AID492950]; assay type: functional
T2 sequence (P9WHJ3 whole entry): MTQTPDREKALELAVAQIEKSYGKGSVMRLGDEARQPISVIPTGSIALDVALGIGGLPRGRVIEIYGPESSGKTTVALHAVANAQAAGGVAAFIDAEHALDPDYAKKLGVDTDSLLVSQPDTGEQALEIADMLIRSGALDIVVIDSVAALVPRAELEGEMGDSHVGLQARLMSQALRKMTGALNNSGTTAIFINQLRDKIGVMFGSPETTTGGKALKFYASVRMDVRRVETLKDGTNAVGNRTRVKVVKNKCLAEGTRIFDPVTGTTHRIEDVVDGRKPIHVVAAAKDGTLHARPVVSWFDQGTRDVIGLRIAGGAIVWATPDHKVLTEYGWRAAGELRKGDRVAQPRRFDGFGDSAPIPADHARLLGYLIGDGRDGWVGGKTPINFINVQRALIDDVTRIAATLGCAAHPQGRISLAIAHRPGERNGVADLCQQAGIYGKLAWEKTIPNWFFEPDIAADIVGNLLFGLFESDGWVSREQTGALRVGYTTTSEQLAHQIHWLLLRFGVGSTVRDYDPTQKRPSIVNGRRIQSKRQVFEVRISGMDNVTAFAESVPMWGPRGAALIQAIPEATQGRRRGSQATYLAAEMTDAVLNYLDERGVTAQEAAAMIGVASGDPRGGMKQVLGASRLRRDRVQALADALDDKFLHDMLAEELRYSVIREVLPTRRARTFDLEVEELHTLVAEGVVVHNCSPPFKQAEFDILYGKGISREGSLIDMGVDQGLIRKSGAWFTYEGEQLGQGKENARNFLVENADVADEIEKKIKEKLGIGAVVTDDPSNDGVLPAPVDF

[7] = target: T3, Voltage-gated N-type calcium channel alpha-1B subunit/Amyloid beta A4 precursor protein-binding family A member 1 (Homo sapiens, UniProt Q00975+Q02410); assay: disruptors of Mint-PDZ/N-type channel peptide interaction – biochemical, HTRF, set 2, SAR follow-up (AID 434980); assay type: functional
T3 sequence (Q00975 whole entry): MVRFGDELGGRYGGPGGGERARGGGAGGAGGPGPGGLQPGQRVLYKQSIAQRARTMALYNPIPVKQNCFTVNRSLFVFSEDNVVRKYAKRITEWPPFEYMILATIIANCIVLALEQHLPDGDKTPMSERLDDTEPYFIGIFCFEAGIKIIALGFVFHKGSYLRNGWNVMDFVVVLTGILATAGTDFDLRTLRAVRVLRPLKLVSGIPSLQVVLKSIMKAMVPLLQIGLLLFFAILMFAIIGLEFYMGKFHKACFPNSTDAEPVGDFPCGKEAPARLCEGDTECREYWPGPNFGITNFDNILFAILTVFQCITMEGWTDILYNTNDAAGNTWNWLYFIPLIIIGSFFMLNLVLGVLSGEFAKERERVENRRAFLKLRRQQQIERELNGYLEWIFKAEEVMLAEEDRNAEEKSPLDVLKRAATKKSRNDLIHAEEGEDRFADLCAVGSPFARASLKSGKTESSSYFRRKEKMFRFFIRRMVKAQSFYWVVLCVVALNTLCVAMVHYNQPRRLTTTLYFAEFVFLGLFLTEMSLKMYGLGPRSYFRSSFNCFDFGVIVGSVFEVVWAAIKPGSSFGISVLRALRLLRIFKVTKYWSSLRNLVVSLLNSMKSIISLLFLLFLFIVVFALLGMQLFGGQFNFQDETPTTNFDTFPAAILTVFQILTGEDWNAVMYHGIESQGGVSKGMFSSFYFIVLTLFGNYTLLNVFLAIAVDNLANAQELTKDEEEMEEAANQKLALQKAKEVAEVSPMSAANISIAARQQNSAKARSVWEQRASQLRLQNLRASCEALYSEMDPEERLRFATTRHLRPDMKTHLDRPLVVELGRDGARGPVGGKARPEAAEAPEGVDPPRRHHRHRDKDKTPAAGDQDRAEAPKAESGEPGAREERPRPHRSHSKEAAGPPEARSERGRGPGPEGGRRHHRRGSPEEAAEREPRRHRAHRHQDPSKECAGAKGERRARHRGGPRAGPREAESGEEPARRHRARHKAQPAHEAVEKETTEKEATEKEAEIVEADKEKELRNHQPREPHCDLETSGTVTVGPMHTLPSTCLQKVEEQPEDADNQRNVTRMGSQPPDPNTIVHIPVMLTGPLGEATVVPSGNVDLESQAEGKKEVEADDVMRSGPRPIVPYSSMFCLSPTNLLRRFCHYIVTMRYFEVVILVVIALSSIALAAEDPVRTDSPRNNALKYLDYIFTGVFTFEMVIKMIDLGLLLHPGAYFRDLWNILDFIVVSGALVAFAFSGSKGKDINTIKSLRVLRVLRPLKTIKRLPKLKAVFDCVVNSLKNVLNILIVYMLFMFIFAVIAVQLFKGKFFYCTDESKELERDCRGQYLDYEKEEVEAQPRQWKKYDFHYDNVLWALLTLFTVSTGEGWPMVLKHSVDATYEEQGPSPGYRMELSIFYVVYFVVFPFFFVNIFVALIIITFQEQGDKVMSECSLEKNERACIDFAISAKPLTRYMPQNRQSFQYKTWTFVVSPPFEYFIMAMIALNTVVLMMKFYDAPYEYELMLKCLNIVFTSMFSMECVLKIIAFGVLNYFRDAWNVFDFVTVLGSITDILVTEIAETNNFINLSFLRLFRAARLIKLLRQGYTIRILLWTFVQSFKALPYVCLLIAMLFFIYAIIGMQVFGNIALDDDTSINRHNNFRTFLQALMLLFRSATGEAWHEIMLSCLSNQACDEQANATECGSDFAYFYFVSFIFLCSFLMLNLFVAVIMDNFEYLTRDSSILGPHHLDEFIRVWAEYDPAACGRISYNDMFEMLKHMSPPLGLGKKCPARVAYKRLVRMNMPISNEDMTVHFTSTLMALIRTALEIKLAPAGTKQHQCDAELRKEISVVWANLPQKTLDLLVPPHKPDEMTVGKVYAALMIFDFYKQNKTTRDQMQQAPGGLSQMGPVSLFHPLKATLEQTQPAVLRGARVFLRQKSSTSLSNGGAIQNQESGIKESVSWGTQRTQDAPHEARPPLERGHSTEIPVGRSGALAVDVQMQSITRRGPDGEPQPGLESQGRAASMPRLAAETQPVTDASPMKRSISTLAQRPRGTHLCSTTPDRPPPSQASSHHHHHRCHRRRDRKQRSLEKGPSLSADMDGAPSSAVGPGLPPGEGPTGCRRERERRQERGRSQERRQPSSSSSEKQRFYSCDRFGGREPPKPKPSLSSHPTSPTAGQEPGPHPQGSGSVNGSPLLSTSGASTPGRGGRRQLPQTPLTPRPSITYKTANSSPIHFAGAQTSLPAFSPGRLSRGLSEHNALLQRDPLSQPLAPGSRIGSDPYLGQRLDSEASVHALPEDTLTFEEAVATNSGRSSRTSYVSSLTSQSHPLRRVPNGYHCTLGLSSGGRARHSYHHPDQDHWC
T3 sequence (Q02410 whole entry): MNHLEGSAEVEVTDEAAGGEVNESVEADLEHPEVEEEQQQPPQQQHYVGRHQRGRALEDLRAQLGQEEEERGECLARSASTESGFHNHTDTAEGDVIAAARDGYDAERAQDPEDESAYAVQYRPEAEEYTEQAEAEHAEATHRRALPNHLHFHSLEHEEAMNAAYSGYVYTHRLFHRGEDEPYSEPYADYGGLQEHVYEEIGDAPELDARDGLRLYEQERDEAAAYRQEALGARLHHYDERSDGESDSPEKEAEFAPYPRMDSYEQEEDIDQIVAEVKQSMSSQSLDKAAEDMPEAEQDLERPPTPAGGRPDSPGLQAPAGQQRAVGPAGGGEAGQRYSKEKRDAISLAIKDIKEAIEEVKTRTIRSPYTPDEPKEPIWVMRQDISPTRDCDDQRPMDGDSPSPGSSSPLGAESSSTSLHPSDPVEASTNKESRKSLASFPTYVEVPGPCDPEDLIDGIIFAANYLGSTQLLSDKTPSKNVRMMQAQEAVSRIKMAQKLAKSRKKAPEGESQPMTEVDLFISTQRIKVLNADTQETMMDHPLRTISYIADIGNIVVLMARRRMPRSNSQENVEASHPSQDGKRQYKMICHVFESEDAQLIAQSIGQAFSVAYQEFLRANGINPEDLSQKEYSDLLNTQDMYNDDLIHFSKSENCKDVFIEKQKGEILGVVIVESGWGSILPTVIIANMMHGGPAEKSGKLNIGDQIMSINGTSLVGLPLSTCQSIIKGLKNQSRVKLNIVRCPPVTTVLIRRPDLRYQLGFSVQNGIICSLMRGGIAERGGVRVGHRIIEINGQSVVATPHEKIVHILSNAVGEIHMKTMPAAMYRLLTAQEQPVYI

[8] = target: T3, Voltage-gated N-type calcium channel alpha-1B subunit/Amyloid beta A4 precursor protein-binding family A member 1; assay: disruptors of Mint-PDZ/N-type channel peptide interaction – biochemical, HTRF, SAR follow-up (AID 2489); assay type: functional
[9] = target: T4, Polyadenylate-binding protein 1 (Homo sapiens, UniProt P11940); assay: MLLE binding blockers, Cy5 peptide tracer – biochemical, fluorescence polarization, Cy5-PAM2 peptide, secondary, miRNA deadenylation inhibitor project, dose response (AID 602260); assay type: functional; details: read-out: IC50_Mean
T4 sequence (P11940 whole entry, the tested form may be a part): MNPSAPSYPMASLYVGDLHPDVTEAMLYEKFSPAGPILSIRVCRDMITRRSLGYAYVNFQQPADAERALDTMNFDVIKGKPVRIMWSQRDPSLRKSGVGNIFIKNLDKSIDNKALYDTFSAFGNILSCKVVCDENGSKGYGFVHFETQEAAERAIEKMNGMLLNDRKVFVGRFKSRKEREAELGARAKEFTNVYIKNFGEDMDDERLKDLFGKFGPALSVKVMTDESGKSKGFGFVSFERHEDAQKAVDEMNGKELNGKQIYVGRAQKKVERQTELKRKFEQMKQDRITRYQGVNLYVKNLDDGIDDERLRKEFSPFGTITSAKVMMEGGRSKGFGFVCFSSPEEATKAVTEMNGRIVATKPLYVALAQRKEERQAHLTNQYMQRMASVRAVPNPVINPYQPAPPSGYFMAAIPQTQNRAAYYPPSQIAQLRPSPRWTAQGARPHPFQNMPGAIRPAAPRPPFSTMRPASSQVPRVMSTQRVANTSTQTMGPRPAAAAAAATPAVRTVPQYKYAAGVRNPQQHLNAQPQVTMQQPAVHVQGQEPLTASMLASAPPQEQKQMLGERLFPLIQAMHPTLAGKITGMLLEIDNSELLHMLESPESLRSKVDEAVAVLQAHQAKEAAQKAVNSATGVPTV

[10] = target: T4, Polyadenylate-binding protein 1; assay: MLLE domain peptide-binding blockers, IC50 – biochemical, fluorescence polarization, FITC-PAM2 peptide, dose response (AID 602259); assay type: functional; details: read-out: IC50_Mean
[11] = target: Cytochrome P450 2C19 (Homo sapiens, UniProt P33261); assay: Cytochrome panel assay with activity outcomes. Panel member name: p450-cyp2c19 Compounds with AC50 equal or less than 10 uM are considered active; assay type: functional
[12] = target: Protein Rev (Human immunodeficiency virus type 1 group M subtype B (isolate HXB2)(HIV-1), UniProt P04618); assay: blockers of HIV Rev/RRE RNA complex – biochemical, fluorescence polarization, HIV-1, dose response (AID 434976); design: species or system Human immunodeficiency virus 1
Chain of Protein Rev (P04618 whole entry): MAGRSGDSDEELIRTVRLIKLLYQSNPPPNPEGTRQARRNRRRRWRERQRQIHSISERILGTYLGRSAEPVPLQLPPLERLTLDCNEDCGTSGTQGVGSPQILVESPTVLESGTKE

[13] = target: Female germline-specific tumor suppressor gld-1 (Caenorhabditis elegans, UniProt Q17339); assay: blockers of GLD-1/TGE RNA complex formation – biochemical, fluorescence polarization, C. elegans, dose response (AID 2802);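 further: fluorescence polarization of labeled TGE RNA bound by purified gld-1 protein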

## O=C(Nc1nnc(C2CC2)s1)c1cc([N+](=O)[O-])ccc1N1CCCCC1
[1]
  IC50: > 66.6 µM (inactive)
[2]
  IC50: > 66.6 µM (inactive)

## N=C1/C(=C\c2ccc(OC(=O)c3ccc(F)cc3)cc2)C(=O)N=C2SC(N3CCOCC3)=NN12
[3]
  AC50: 22.4 µM (active)
[4]
  IC50: 19.2 µM (active)
[5]
  IC50: > 75 µM (active)
[6]
  EC50: 17.1 µM (active)

## O=C(c1cc(-c2ccco2)nc2ccccc12)N1CCN(c2ccccc2)CC1
[7]
  IC50: > 56.8 µM (inactive)
[8]
  IC50: > 56.8 µM (inactive)

## O=c1nc2[nH]c3ccccc3nc-2c(=O)[nH]1 [ALLOXAZINE]
[9]
  IC50: > 66 µM (inactive)
[10]
  IC50: 35.8 µM (inactive)
[11]
  AC50: inconclusive
[12]
  IC50: 12.4 µM (not active)
[13]
  IC50: 1.47 µM (active)
